# Reference: US7572778B2, “Fluorocombretastatin and derivatives thereof” (Sigma-Tau Industrie Farmaceutiche Riunite S.p.A., priority 2003, dated 2009)
# Marks after values point to notes of the source that are not given here.
# Experiments:
# [1] = tested on: NCI-H460 human lung carcinoma; assay: Tumor growth evaluation, NCI-H460 s.c. xenograft; assay type: in vivo, CD-1 nude mice
# Method: NCI-H460 human lung carcinoma from in vitro cell cultures were injected s.c. (3×10^6 cells/100 μl/mouse) into the right flank of CD-1 nude mice. Four days after tumor implant mice started to be treated with ST2493 at the dose of 50 mg/kg intraperitoneally according to the following schedule: qdx5/w/3wks. CA-4P (combretastatin A-4 P) at the same dose was used as positive control.
# All animals were weighed during the whole treatment period, in order to adjust the volume of drug administration and to record the percent of body weight loss due in the course of treatment.
# In a following experiment with the same animal model ST2493 (prodrug of ST2303) was administered intravenously at the doses of 25 and 50 mg/kg according to a q2dx6 schedule.
# Tumor growth was assessed by twice a week measurements of the shortest (width) and the longest (length) diameters of each tumor by a Vernier caliper and the antitumor activity was evaluated in terms of percent inhibition of tumor growth. Tumor volume (or tumor weight*) was calculated according to the following formula using caliper measurements: tumor volume or TV (mm^3)=[length (mm)×width (mm)^2]/2.
# Tumor volume inhibition percent (% TVI) was calculated according to the equation: 100−[(mean tumor volume of treated group/mean tumor volume of control group)×100]. A P value≦0.05 was considered statistically significant.
# [2] = tested on: EA-hy 926 cell line; assay: Cytotoxicity assay (sulforhodamine B), EA-hy 926; assay type: cell-based; details: Homo sapiens, EAHY.926, 24 h exposure, then 48 h drug-free
# Method: (§1) Primary cultures of bovine microvascular endothelial cells (BMEC) were obtained from bovine adrenal glands as described by Folkman (Folkman J., Haudenschild C. C., Zetter B. R. Long-term culture of capillary endothelial cells. Proc. Natl. Acad. Sci. USA, 1979 October; 76(10): 5217-21). BMEC were maintained in DMEM supplemented with 20% fetal calf serum (FCS), 50 units/ml heparin (Sigma, St. Louis, Mo.), 50 μg/ml bovine brain extract, 100 units/ml gentamycin. HUVEC (Human umbilical vein endothelial cells) were obtained from BioWhittaker (Walkersville, Md.) and grown in EGM-2 (BioWhittaker). EA-hy 926 cell line, a HUVEC-adenocarcinoma immortalized cell hybrid, was obtained from the Dipartimento di Scienze Biomediche e Oncologia Umana (Universita di Bari, Italy), and cultured in DMEM supplemented with 10% serum and 50 μg/ml gentamycin sulfate.
# (§2) To test the effects of ST2303 on growth, cells were seeded in 96-well tissue culture plates (Corning) at approximately 10% confluence and were allowed to attach and recover for at least 24 h. Varying concentrations of the compound were then added to each well. […] The number of surviving cells was then determined by staining with sulforhodamine B as described by Skehan et al. (1990). ST2303 inhibitory concentration 50 (IC50)±SD on different cell lines, evaluated by “ALLFIT” computer program, are shown in Table 1.
# [3] = tested on: HUVEC (Human umbilical vein endothelial cells); assay: Cytotoxicity assay (sulforhodamine B), HUVEC; assay type: cell-based; details: 24 h exposure, then 48 h drug-free
# Method: as §1, §2
# [4] = tested on: HT-29 human colon adenocarcinoma cells; assay: Cytotoxicity assay (sulforhodamine B), HT-29; assay type: cell-based; details: HT29, 24 h exposure, then 48 h drug-free
# Method: (§3) The following cell lines were purchased from ATCC and cultured according to manufacturer's instructions: NCIH460 human lung carcinoma, MeWo human melanoma, MES-SA human uterine sarcoma and HCT116 human colorectal carcinoma. HT-29 human colon adenocarcinoma cells and A2780 human ovarian carcinoma, obtained from Istituto Nazionale Tumori (Milan, Italy), were grown in RPMI 1640 (GIBCO) containing 10% fetal bovine serum (GIBCO) and 50 μg/ml gentamycin sulfate.
# (§4) To test the effects of ST2303 on growth, cells were seeded in 96-well tissue culture plates (Corning) at approximately 10% confluence and were allowed to attach and recover for at least 24 h. Varying concentrations of the compound were then added to each well. The plates were incubated for 24 h and then washed before incubating them for additional 48 h. The number of surviving cells was then determined by staining with sulforhodamine B as described by Skehan et al. (1990). ST2303 inhibitory concentration 50 (IC50)±SD on different cell lines, evaluated by “ALLFIT” computer program, are shown in Table 1.
# [5] = tested on: A2780 human ovarian carcinoma; assay: Cytotoxicity assay (sulforhodamine B), A2780; assay type: cell-based; details: 24 h exposure, then 48 h drug-free
# Method: as §3, §4
# [6] = tested on: HCT116 human colorectal carcinoma; assay: Cytotoxicity assay (sulforhodamine B), HCT116; assay type: cell-based; details: HCT 116, 24 h exposure, then 48 h drug-free
# Method: as §3, §4
# [7] = tested on: NCIH460 human lung carcinoma; assay: Cytotoxicity assay (sulforhodamine B), NCI-H460; assay type: cell-based; details: 24 h exposure, then 48 h drug-free
# Method: as §3, §4
# [8] = tested on: bovine microvascular endothelial cells (BMEC); assay: Cytotoxicity assay (sulforhodamine B), BMEC; assay type: cell-based; details: Bos taurus, Endothelial cell, 24 h exposure, then 48 h drug-free
# Method: as §1, §2
# [9] = tested on: tubulin; assay: Tubulin polymerisation inhibition test (CytoDINAMIX Screen, turbidity at 340 nm); assay type: biochemical; details: tubulin 3 mg/ml, 37° C.; mean of 3 independent determinations; read-out: IC50 ± SE, tubulin polymerisation
# Method: The tubulin polymerisation test was performed by CytoDINAMIX Screen™. Turbidity from tubulin polimerisation was measured with a Victor2 from Wallac. HTS-tubulin was diluted to 3 mg/ml in buffer PEM [100 mM PIPES (pH 6.9), 1 mM EGTA and 1 mM MgCl2] containing 1 mM GTP (GPEM) plus 5% glycerol, and kept on ice. Aliquots of this solution was then placed at 37° C. in presence of taxol (3 μM) or colcemid (3 μM) or combretastatin (ST1986) or compounds to examinate, and absorbance was measured at 340 nm. The IC50 values were determined by non-linear regression analysis using “Prism GraphPad” software.
# The value indicated in Table 3 is the mean of 3 independent determinations.
# [10] = tested on: MeWo human melanoma; assay: Cytotoxicity assay (sulforhodamine B), MeWo; assay type: cell-based; details: 24 h exposure, then 48 h drug-free
# Method: as §3, §4
# [11] = tested on: MES-SA human uterine sarcoma; assay: Cytotoxicity assay (sulforhodamine B), MES-SA; assay type: cell-based; details: 24 h exposure, then 48 h drug-free
# Method: as §3, §4
# [12] = i.p. 50 mg/kg, qdx5/w/3wks, day 11 after cell injection
# [13] = i.p. 50 mg/kg, qdx5/w/3wks, day 28 after cell injection
structure (smiles),measurement,setting,value
"COc1ccc(/C=C\c2cc(OC)c(OC)c(OC)c2)cc1OP(=O)(O)O [CA-4P, combretastatin A-4 P, reference compound]",% BWL (body weight loss),"[1]; i.p. 50 mg/kg, qdx5/w/3wks",3%
same,mortality,"[1]; i.p. 50 mg/kg, qdx5/w/3wks",0/8
same,% TVI (tumor volume inhibition),[1]; [12],47** %
same,% TVI (tumor volume inhibition),[1]; [13],61*** %
"COc1ccc(/C(F)=C(/F)c2cc(OC)c(OC)c(OC)c2)cc1O [ST2303, (Z)-1,2-difluoro-1-(3,4,5 trimethoxyphenyl)-2-(3-hydroxy-4-methoxyphenyl)ethene]",IC50,[2],5 ± 0.5 nM
same,IC50,[3],1 ± 0.3 nM
same,IC50,[4],> 200 nM
same,IC50,[5],3 ± 0.001 nM
same,IC50,[6],2.2 ± 0.05 nM
same,IC50,[7],3 ± 0.005 nM
same,IC50,[8],1 ± 0.5 nM
same,IC50,[9],7700 ± 120 nM
same,IC50,[10],3.6 ± 0.0003 nM
same,IC50,[11],< 1 nM
"COc1ccc(/C(F)=C(/F)c2cc(OC)c(OC)c(OC)c2)cc1OP(=O)([O-])[O-].[Na+].[Na+] [ST2493, (Z)-1,2-difluoro-1-(3,4,5-trimethoxyphenyl)-2-(3-hydroxy-4-methoxyphenyl)ethene o-disodium phosphate]",TVI compared to vehicle (in words),[1]; both intraperitoneal and intravenous administration,significant TVI
same,% BWL (body weight loss),"[1]; i.p. 50 mg/kg, qdx5/w/3wks",8%
same,mortality,"[1]; i.p. 50 mg/kg, qdx5/w/3wks",0/8
same,% TVI (tumor volume inhibition),[1]; [12],68** %
same,% TVI (tumor volume inhibition),[1]; [13],73*** %
same,% BWL (body weight loss),"[1]; i.v. 25 mg/kg, q2dx6",8%
same,mortality,"[1]; i.v. 25 mg/kg, q2dx6",0/8
same,% TVI (tumor volume inhibition),"[1]; i.v. 25 mg/kg, q2dx6, day 11 after cell injection",63** %
same,% TVI (tumor volume inhibition),"[1]; i.v. 25 mg/kg, q2dx6, day 28 after cell injection",64*** %
same,% BWL (body weight loss),"[1]; i.v. 50 mg/kg, q2dx6",8%
same,mortality,"[1]; i.v. 50 mg/kg, q2dx6",0/8
same,% TVI (tumor volume inhibition),"[1]; i.v. 50 mg/kg, q2dx6, day 11 after cell injection",73** %
same,% TVI (tumor volume inhibition),"[1]; i.v. 50 mg/kg, q2dx6, day 28 after cell injection",73** %
same,TVI compared with the same dose of CA-4P (in words),"[1]; intraperitoneal, 50 mg/kg, p=0.0095 at day 11, p=0.0180 at day 28, Mann Whitney's test",significant difference
